Results: PubChem BioAssay AID1918934 (Molecular Pharmacology Branch, DTP, NCI, 2023)
pIC50: −log10 of the molar value. Where “and” joins values, the source holds several entries; their conditions need not be identical. Equal values may be shown once. Blank lines part the entries; values can stand above or below the compound they belong to.

Test system: 292921-168-R-J2-PDC complex spheroid viability
Assay: Anticancer human tumor 292921-168-R-J2-PDC patient-derived pancreatic carcinoma cell line growth inhibition
Conditions: for viability, T/C: stronger effect = lower value
Procedure, shortened: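 Multicellular complex spheroids of tumor cells with human endothelial cells (HUVEC) and mesenchymal stem cells; the LSD1 inhibitor iadademstat was combined with standard-of-care or investigational agents. Top concentration at or near clinical Cmax, half-log dilutions; final DMSO ≤0.25%.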

[1] = curve of first compound, second compound 0.1 µM
[2] = curve of first compound, second compound 0.316 µM
[3] = curve of first compound, second compound 1 µM
[4] = curve of first compound, second compound 3.16 µM
[5] = curve of first compound, second compound 10 µM
[6] = second compound 0.1 µM, first compound 0.00949 µM
[7] = second compound 0.1 µM, first compound 0.03 µM
[8] = second compound 0.1 µM, first compound 0.0949 µM
[9] = second compound 0.1 µM, first compound 0.3 µM
[10] = second compound 0.1 µM, first compound 0.949 µM
[11] = second compound 0.1 µM, first compound 3 µM
[12] = second compound 0.316 µM, first compound 0.00949 µM
[13] = second compound 0.316 µM, first compound 0.03 µM
[14] = second compound 0.316 µM, first compound 0.0949 µM
[15] = second compound 0.316 µM, first compound 0.3 µM
[16] = second compound 0.316 µM, first compound 0.949 µM
[17] = second compound 0.316 µM, first compound 3 µM
[18] = second compound 1 µM, first compound 0.00949 µM
[19] = second compound 1 µM, first compound 0.03 µM
[20] = second compound 1 µM, first compound 0.0949 µM
[21] = second compound 1 µM, first compound 0.3 µM
[22] = second compound 1 µM, first compound 0.949 µM
[23] = second compound 1 µM, first compound 3 µM
[24] = second compound 3.16 µM, first compound 0.00949 µM
[25] = second compound 3.16 µM, first compound 0.03 µM
[26] = second compound 3.16 µM, first compound 0.0949 µM
[27] = second compound 3.16 µM, first compound 0.3 µM
[28] = second compound 3.16 µM, first compound 0.949 µM
[29] = second compound 3.16 µM, first compound 3 µM
[30] = second compound 10 µM, first compound 0.00949 µM
[31] = second compound 10 µM, first compound 0.03 µM
[32] = second compound 10 µM, first compound 0.0949 µM
[33] = second compound 10 µM, first compound 0.3 µM
[34] = second compound 10 µM, first compound 0.949 µM
[35] = second compound 10 µM, first compound 3 µM
[36] = second compound 0.1 µM, first compound 0.0316 µM
[37] = second compound 0.1 µM, first compound 0.1 µM
[38] = second compound 0.316 µM, first compound 0.0316 µM
[39] = second compound 0.316 µM, first compound 0.1 µM
[40] = second compound 1 µM, first compound 0.0316 µM
[41] = second compound 1 µM, first compound 0.1 µM
[42] = second compound 3.16 µM, first compound 0.0316 µM
[43] = second compound 3.16 µM, first compound 0.1 µM
[44] = second compound 10 µM, first compound 0.0316 µM
[45] = second compound 10 µM, first compound 0.1 µM
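Note: seven day compound exposure before luminescent viability read.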
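Throughout, for viability, T/C: 100% = DMSO vehicle control wells.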

- pIC50 (curve of compound): 7.14 and 7.08
Structure (SMILES): Nc1ncn(C2CC(O)C(CO)S2)c(=O)n1 (centres undefined)
- viability, T/C (compound 0.000949 µM): 96.5% and 102%
- viability, T/C (compound 0.003 µM): 104% and 92.4%
- viability, T/C (compound 0.00949 µM): 84% and 88.4%
- viability, T/C (compound 0.03 µM): 72.4% and 80.4%
- viability, T/C (compound 0.0949 µM): 43.5% and 45.3%
- viability, T/C (compound 0.3 µM): 13.5% and 13.6%

Structure (SMILES): O=C(C=Cc1cccc(S(=O)(=O)Nc2ccccc2)c1)NO + NC1CCC(NC2CC2c2ccccc2)CC1
- pIC50 [1]: > 8.02
- pIC50 [2]: > 8.02
- pIC50 [3]: > 8.02
- pIC50 [4]: > 8.02
- pIC50 [5]: > 8.02
- viability, T/C [6]: 44%
- viability, T/C [7]: 36.2%
- viability, T/C [8]: 28.6%
- viability, T/C [9]: 17.3%
- viability, T/C [10]: 0.45%
- viability, T/C [11]: 0.08%
- viability, T/C [12]: 48.7%
- viability, T/C [13]: 34.8%
- viability, T/C [14]: 31.6%
- viability, T/C [15]: 19.1%
- viability, T/C [16]: 0.37%
- viability, T/C [17]: 0.38%
- viability, T/C [18]: 43.8%
- viability, T/C [19]: 35.6%
- viability, T/C [20]: 30.9%
- viability, T/C [21]: 15.2%
- viability, T/C [22]: 0.34%
- viability, T/C [23]: 0.09%
- viability, T/C [24]: 40%
- viability, T/C [25]: 33.4%
- viability, T/C [26]: 24.4%
- viability, T/C [27]: 12.4%
- viability, T/C [28]: 0.19%
- viability, T/C [29]: 0.08%
- viability, T/C [30]: 42.2%
- viability, T/C [31]: 32.4%
- viability, T/C [32]: 22.9%
- viability, T/C [33]: 7.61%
- viability, T/C [34]: 0.12%
- viability, T/C [35]: 0.13%

Structure (SMILES): CCN(c1cc(-c2ccc(CN3CCOCC3)cc2)cc(C(=O)NCc2c(C)cc(C)[nH]c2=O)c1C)C1CCOCC1 + NC1CC1c1ccc(-c2cccc(O)c2)cc1
- pIC50 [1]: 5.97
- pIC50 [2]: 5.99
- pIC50 [3]: 5.96
- pIC50 [4]: 5.97
- pIC50 [5]: 6.12
- viability, T/C [6]: 77.2%
- viability, T/C [7]: 79.2%
- viability, T/C [8]: 81.9%
- viability, T/C [9]: 77.1%
- viability, T/C [10]: 53.5%
- viability, T/C [11]: 22.1%
- viability, T/C [12]: 69.5%
- viability, T/C [13]: 82.7%
- viability, T/C [14]: 77.5%
- viability, T/C [15]: 71.7%
- viability, T/C [16]: 51.9%
- viability, T/C [17]: 21.7%
- viability, T/C [18]: 68.6%
- viability, T/C [19]: 72%
- viability, T/C [20]: 68.8%
- viability, T/C [21]: 68.4%
- viability, T/C [22]: 54.5%
- viability, T/C [23]: 19.4%
- viability, T/C [24]: 70.7%
- viability, T/C [25]: 75.3%
- viability, T/C [26]: 70.2%
- viability, T/C [27]: 64.5%
- viability, T/C [28]: 54.1%
- viability, T/C [29]: 22.3%
- viability, T/C [30]: 62.7%
- viability, T/C [31]: 62.5%
- viability, T/C [32]: 62.5%
- viability, T/C [33]: 60.2%
- viability, T/C [34]: 47.6%
- viability, T/C [35]: 21.8%

Structure (SMILES): CC(C)c1c(-c2ccccc2)nc2c(C#N)c[nH]n2c1=O + NC1CC1c1ccc(-c2cccc(O)c2)cc1
- pIC50 [1]: < 5.00
- pIC50 [2]: < 5.00
- pIC50 [3]: < 5.00
- pIC50 [4]: < 5.00
- pIC50 [5]: < 5.00
- viability, T/C [36]: 79.9%
- viability, T/C [37]: 84%
- viability, T/C (second compound 0.1 µM, first compound 0.316 µM): 82%
- viability, T/C (second compound 0.1 µM, first compound 1 µM): 70.7%
- viability, T/C (second compound 0.1 µM, first compound 3.16 µM): 78.4%
- viability, T/C (second compound 0.1 µM, first compound 10 µM): 66%
- viability, T/C [38]: 81.7%
- viability, T/C [39]: 73%
- viability, T/C (second compound 0.316 µM, first compound 0.316 µM): 80.7%
- viability, T/C (second compound 0.316 µM, first compound 1 µM): 69.5%
- viability, T/C (second compound 0.316 µM, first compound 3.16 µM): 71.4%
- viability, T/C (second compound 0.316 µM, first compound 10 µM): 60.4%
- viability, T/C [40]: 71.8%
- viability, T/C [41]: 68.9%
- viability, T/C (second compound 1 µM, first compound 0.316 µM): 66.8%
- viability, T/C (second compound 1 µM, first compound 1 µM): 66.2%
- viability, T/C (second compound 1 µM, first compound 3.16 µM): 61.1%
- viability, T/C (second compound 1 µM, first compound 10 µM): 55.7%
- viability, T/C [42]: 58.6%
- viability, T/C [43]: 65.3%
- viability, T/C (second compound 3.16 µM, first compound 0.316 µM): 64.4%
- viability, T/C (second compound 3.16 µM, first compound 1 µM): 57.9%
- viability, T/C (second compound 3.16 µM, first compound 3.16 µM): 52.2%
- viability, T/C (second compound 3.16 µM, first compound 10 µM): 59.6%
- viability, T/C [44]: 58.1%
- viability, T/C [45]: 53.2%
- viability, T/C (second compound 10 µM, first compound 0.316 µM): 58.4%
- viability, T/C (second compound 10 µM, first compound 1 µM): 53.7%
- viability, T/C (second compound 10 µM, first compound 3.16 µM): 49.8%
- viability, T/C (second compound 10 µM, first compound 10 µM): 52.2%

Structure (SMILES): CC(C)CC(NC(=O)CNC(=O)c1cc(Cl)ccc1Cl)B1OC(=O)CC(CC(=O)O)(C(=O)O)O1 (centres undefined) + NC1CCC(NC2CC2c2ccccc2)CC1
- pIC50 [1]: 8.32
- pIC50 [2]: 8.37
- pIC50 [3]: 8.33
- pIC50 [4]: 8.37
- pIC50 [5]: 8.37
- viability, T/C (second compound 0.1 µM, first compound 0.000316 µM): 75.8%
- viability, T/C (second compound 0.1 µM, first compound 0.001 µM): 69.4%
- viability, T/C (second compound 0.1 µM, first compound 0.00316 µM): 70.9%
- viability, T/C (second compound 0.1 µM, first compound 0.01 µM): 13.4%
- viability, T/C [36]: 2.33%
- viability, T/C [37]: 0.79%
- viability, T/C (second compound 0.316 µM, first compound 0.000316 µM): 60.9%
- viability, T/C (second compound 0.316 µM, first compound 0.001 µM): 70.9%
- viability, T/C (second compound 0.316 µM, first compound 0.00316 µM): 61.9%
- viability, T/C (second compound 0.316 µM, first compound 0.01 µM): 16.1%
- viability, T/C [38]: 2.1%
- viability, T/C [39]: 0.69%
- viability, T/C (second compound 1 µM, first compound 0.000316 µM): 63.8%
- viability, T/C (second compound 1 µM, first compound 0.001 µM): 73%
- viability, T/C (second compound 1 µM, first compound 0.00316 µM): 66.7%
- viability, T/C (second compound 1 µM, first compound 0.01 µM): 17.2%
- viability, T/C [40]: 2.39%
- viability, T/C [41]: 0.76%
- viability, T/C (second compound 3.16 µM, first compound 0.000316 µM): 54.9%
- viability, T/C (second compound 3.16 µM, first compound 0.001 µM): 67%
- viability, T/C (second compound 3.16 µM, first compound 0.00316 µM): 63.5%
- viability, T/C (second compound 3.16 µM, first compound 0.01 µM): 15.9%
- viability, T/C [42]: 1.7%
- viability, T/C [43]: 0.63%
- viability, T/C (second compound 10 µM, first compound 0.000316 µM): 58.6%
- viability, T/C (second compound 10 µM, first compound 0.001 µM): 69%
- viability, T/C (second compound 10 µM, first compound 0.00316 µM): 63.1%
- viability, T/C (second compound 10 µM, first compound 0.01 µM): 11.7%
- viability, T/C [44]: 1.43%
- viability, T/C [45]: 0.5%

- pIC50 (curve of compound): < 7.00
Structure (SMILES): Cn1ncnc1C1c2n[nH]c(=O)c3cc(F)cc(c23)NC1c1ccc(F)cc1 (centres undefined)
- viability, T/C (compound 0.000316 µM): 86.8% and 103%
- viability, T/C (compound 0.001 µM): 102% and 101%
- viability, T/C (compound 0.00316 µM): 94.5% and 96.3%
- viability, T/C (compound 0.01 µM): 93.9% and 94.8%
- viability, T/C (compound 0.0316 µM): 85.9% and 88.3%
- viability, T/C (compound 0.1 µM): 82.3% and 83.5%
